In ChEMBL document CHEMBL1201862, “PubChem BioAssay data set” (2004):
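Values below derive from 48-hour exposures of cells grown in 96-well plates, with endpoints linearly interpolated between the two concentrations bracketing the appropriate inhibition level. At the GI50, growth is halved.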 Active and inactive are the calls of the source. No stated cut-off is given here; in the data, active = GI50 up to about 1.1 µM and inactive = higher.

How the values were obtained:
Assay in all cases: NCI anticancer screen, dose series, 48 h
HCT-15 = tested on: HCT-15
NCI-H460 = tested on: NCI-H460
OVCAR-3 = tested on: OVCAR-3
K562 = tested on: K562
M14 = tested on: M14
HOP-92 = tested on: HOP-92
OVCAR-4 = tested on: OVCAR-4
SR = tested on: SR
RXF 393 = tested on: RXF 393
OVCAR-8 = tested on: OVCAR-8
SNB-19 = tested on: SNB-19
IGROV-1 = tested on: IGROV-1
SF-268 = tested on: SF-268
HL-60 = tested on: HL-60
HOP-62 = tested on: HOP-62
786-0 = tested on: 786-0
SN12C = tested on: SN12C
UO-31 = tested on: UO-31
EKVX = tested on: EKVX
TK-10 = tested on: TK-10

Structure (SMILES)	GI50 (HCT-15) [µM]	GI50 (NCI-H460)	GI50 (OVCAR-3)	GI50 (K562)	GI50 (M14)	GI50 (HOP-92)	GI50 (OVCAR-4)	GI50 (SR)	GI50 (RXF 393)	GI50 (OVCAR-8)	GI50 (SNB-19)	GI50 (IGROV-1)	GI50 (SF-268)	GI50 (HL-60)	GI50 (HOP-62)	GI50 (786-0)	GI50 (SN12C)	GI50 (UO-31)	GI50 (EKVX)	GI50 (TK-10)
C=C(Br)CN(C)CC(=C)Br	> 100	> 100 µM (inactive)	> 100 µM (inactive)	> 100 µM (inactive)	> 100 µM (inactive)	> 100 µM (inactive)	> 100 µM (inactive)	> 100 µM (inactive)	> 100 µM (inactive)	> 100 µM (inactive)	> 100 µM (inactive)	> 100 µM (inactive)	> 100 µM (inactive)	> 100 µM (inactive)	> 100 µM (inactive)	> 100 µM (inactive)	> 100 µM (inactive)	> 100 µM (inactive)	> 100 µM (inactive)	50.1 µM (inactive)
COC(=O)C1(F)C(=O)NC(=O)NC1O (stereo not given)	61.5	50.6 µM (inactive)	62.7 µM (inactive)	> 84.5 µM (inactive)	> 100 µM (inactive)	> 58.9 µM (inactive)	80 µM (inactive)	> 53 µM (inactive)	> 100 µM (inactive)	> 100 µM (inactive)	> 100 µM (inactive)	> 100 µM (inactive)	> 100 µM (inactive)	31 µM (inactive)	> 100 µM (inactive)	> 100 µM (inactive)	> 100 µM (inactive)	59.4 µM (inactive)	99.8 µM (inactive)	> 100 µM (inactive)
COc1cccc(/C=C/C(=O)c2sc(C(N)=S)nc2C)c1O	26.1	> 76.4 µM (inactive)	> 60.3 µM (inactive)	42.4 µM (inactive)	> 77.4 µM (inactive)	> 100 µM (inactive)	> 72.8 µM (inactive)	12.5 µM (inactive)	> 74.3 µM (inactive)	> 96.2 µM (inactive)	> 100 µM (inactive)	> 61.5 µM (inactive)	> 86.3 µM (inactive)	22.2 µM (inactive)	> 100 µM (inactive)	34.8 µM (inactive)	> 100 µM (inactive)	56.4 µM (inactive)	> 100 µM (inactive)	> 100 µM (inactive)
COc1ccc(/C=c2/s/c(=C(\C#N)c3nc4ccccc4[nH]3)n(-c3ccccc3)c2=O)cc1	> 53.6	9.75 µM (inactive)	26.8 µM (inactive)	> 100 µM (inactive)	> 56.9 µM (inactive)	12.6 µM (inactive)	6.92 µM (inactive)	> 100 µM (inactive)	36 µM (inactive)	14.6 µM (inactive)	47.1 µM (inactive)	> 54.5 µM (inactive)	31.7 µM (inactive)	> 100 µM (inactive)	17.1 µM (inactive)	12.8 µM (inactive)	> 80.2 µM (inactive)	> 52.6 µM (inactive)	> 69.3 µM (inactive)	> 52.7 µM (inactive)
COC(=O)C#CC(N)=O	> 100	> 100 µM (inactive)	> 100 µM (inactive)	21.8 µM (inactive)	19.5 µM (inactive)	20.6 µM (inactive)	> 100 µM (inactive)	24.2 µM (inactive)	31.4 µM (inactive)	30.7 µM (inactive)	> 100 µM (inactive)	> 100 µM (inactive)	> 100 µM (inactive)	4.94 µM (inactive)	> 100 µM (inactive)	> 59.3 µM (inactive)	> 100 µM (inactive)	> 100 µM (inactive)	> 100 µM (inactive)	> 55.6 µM (inactive)
NC(=O)c1oc([N+](=O)[O-])c(-c2ccccc2)c1-c1ccccc1	15.5	26.2 µM (inactive)	1.24 µM (inactive)	14.6 µM (inactive)	17.7 µM (inactive)	16.1 µM (inactive)	12.2 µM (inactive)	6.27 µM (inactive)	31.6 µM (inactive)	24.8 µM (inactive)	38.5 µM (inactive)	12.9 µM (inactive)	37.6 µM (inactive)	25.1 µM (inactive)	25.8 µM (inactive)	25.1 µM (inactive)	0.0367 µM (active)	16.3 µM (inactive)	17.6 µM (inactive)	28.6 µM (inactive)
CCOC(=O)C(SCCO)C(C(=O)OCC)n1ccc(=O)[nH]c1=O (stereo not given)	17.5	57.1 µM (inactive)	23.3 µM (inactive)	5.55 µM (inactive)	27.3 µM (inactive)	13.8 µM (inactive)	> 49.3 µM (inactive)	11.9 µM (inactive)	24.2 µM (inactive)	25.1 µM (inactive)	> 100 µM (inactive)	31.9 µM (inactive)	35.4 µM (inactive)	3.16 µM (inactive)	> 60.7 µM (inactive)	16.6 µM (inactive)	22.1 µM (inactive)	> 92 µM (inactive)	75.9 µM (inactive)	> 56.8 µM (inactive)
C/C(CC(O)(C(F)(F)F)C(F)(F)F)=N/Nc1ccc([N+](=O)[O-])cc1[N+](=O)[O-]	2.85	3.11 µM (inactive)	1.96 µM (inactive)	2.44 µM (inactive)	3.61 µM (inactive)	1.8 µM (inactive)	3.42 µM (inactive)	4.9 µM (inactive)	2.12 µM (inactive)	3 µM (inactive)	3.27 µM (inactive)	4.15 µM (inactive)	2.81 µM (inactive)	2.94 µM (inactive)	2.99 µM (inactive)	3.5 µM (inactive)	3.7 µM (inactive)	2.32 µM (inactive)	2.26 µM (inactive)	3.56 µM (inactive)
CC(=O)N(C)SCC(NC(=O)C(Cc1ccccc1)NC(=O)OCc1ccccc1)C(=O)NC(Cc1ccccc1)C(=O)NC(Cc1cn(C=O)c2ccccc12)C(=O)NC(CCCCNC(=O)OCc1ccccc1)C(=O)NC(C(=O)NC(CSN(C)C(C)=O)C(=O)NO)C(C)OCc1ccccc1 (stereo not given)	> 100	> 100 µM (inactive)	> 100 µM (inactive)	> 100 µM (inactive)	> 100 µM (inactive)	> 100 µM (inactive)	> 100 µM (inactive)	> 100 µM (inactive)	> 100 µM (inactive)	> 100 µM (inactive)	> 100 µM (inactive)	> 100 µM (inactive)	> 100 µM (inactive)	> 100 µM (inactive)	> 100 µM (inactive)	> 100 µM (inactive)	> 100 µM (inactive)	> 100 µM (inactive)	> 100 µM (inactive)	> 100 µM (inactive)
C/C(=N\N=C(/S)N1CCCCCC1)c1cccc[n+]1[O-]	0.845	1.8 µM (inactive)	0.61 µM (active)	0.0883 µM (active)	2.72 µM (inactive)	11.1 µM (inactive)	8.17 µM (inactive)	4.01 µM (inactive)	18.4 µM (inactive)	3.12 µM (inactive)	7.41 µM (inactive)	1.91 µM (inactive)	9.29 µM (inactive)	0.336 µM (active)	1.12 µM (active)	1.53 µM (inactive)	13.8 µM (inactive)	7.55 µM (inactive)	7.23 µM (inactive)	21.5 µM (inactive)
